In patent US20230072421A1, “TARGETED RADIOPHARMACEUTICALS FOR THE DIAGNOSIS AND TREATMENT OF PROSTATE CANCER” (Bayer AS, priority 2019, published 2023):

Columns and labels:
[1] = test system: VCap, C4-2, 22Rv1 and LnCap cells; assay: Cell proliferation assay, summary statements over several cell lines; assay type: cell-based; details: for antiproliferative activity on VCap, C4-2, 22Rv1 and LnCap cells (in words): 227Th-labelled compounds bearing the HOPO chelator Example A
Method: Inhibition of cell proliferation of Thorium-227 labeled PMSA SMOL ligands was tested different prostate cancer cell lines, namely 22Rv1, VCaP, C4-2 (all from ATCC, Manassas, Va., USA) and LNCaP (DMSZ, Braunschweig). Cells were seeded using the following conditions in 384 well plates (Corning) in 30 μl of growth media at 4000 cells/well for VCaP cells and 1000 cells/well for 22Rv1, C4-2 and LNCaP cells.
Cells were cultivated an incubator at 37° C. and 5% C02 over night. […] In sister plates cell viability at treatment start (d=0) was determined using CellTiter-Glo® assay (CTG, Promega, Madison, Wis., USA), by adding 30 μl per well CTG solution, incubation for 10 min and reading of Luminescence in a PheraStarFSX instrument (BMG Labtech). After a 5-day exposure in the presenced of test compounds, cell viability of treated or untreated control cells was determined again using CellTiter-Glo® assay (Promega, Madison, Wis., USA). […] The DRC software is a Biobook Spreadsheet that was developed by Bayer AG and Bayer Business Services on the IDBS E-Workbook Suite platform (IDBS: ID Business Solutions Ltd., Guildford, UK).

[2] = test system: LNCaP human prostate cancer cells; assay: LNCaP xenograft efficacy study (T/C tumor area); assay type: in vivo, SCID mice; details: Example III; day 64 after start of therapy; single treatment 1.5 MBq/kg
Outline: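 SCID mice with testosterone pellet bearing s.c. flank LNCaP xenografts (5×10^6 cells in Matrigel) were treated i.v. with a defined radioactive dose once tumors reached 35-50 mm^2 (n=10/group). Tumor area (caliper, longest diameter × perpendicular) measured 2-3× weekly; T/C ratio calculated from tumor areas when vehicle group closed.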

[3] = target: T1, PSMA-expressing LNCaP cells (Homo sapiens, UniProt Q04609); assay: Binding competition assay against 3H-PSMA-617 on LNCaP cells; details: for remaining activity at 0.01 µM / remaining activity at 0.1 µM / % remaining 3H-PSMA-617 @ 10 nM (mean) / % remaining 3H-PSMA-617 @ 100 nM (mean): LNCaP cells, 10 nM 3H-PSMA-617, 2 h at 37° C., triplicates; for remaining activity at 0.01 µM / % remaining 3H-PSMA-617 @ 10 nM (mean): competing non-radiolabeled compound 10 nM; for remaining activity at 0.1 µM / % remaining 3H-PSMA-617 @ 100 nM (mean): competing non-radiolabeled compound 100 nM; for competition against 3H-PSMA-617 on PSMA-expressing LNCaP cells (in words): comparison between examples
T1 construct: PSMA-expressing LNCaP cells; endogenous in cells; host or cells: LNCaP
T1 sequence (Q04609 whole entry): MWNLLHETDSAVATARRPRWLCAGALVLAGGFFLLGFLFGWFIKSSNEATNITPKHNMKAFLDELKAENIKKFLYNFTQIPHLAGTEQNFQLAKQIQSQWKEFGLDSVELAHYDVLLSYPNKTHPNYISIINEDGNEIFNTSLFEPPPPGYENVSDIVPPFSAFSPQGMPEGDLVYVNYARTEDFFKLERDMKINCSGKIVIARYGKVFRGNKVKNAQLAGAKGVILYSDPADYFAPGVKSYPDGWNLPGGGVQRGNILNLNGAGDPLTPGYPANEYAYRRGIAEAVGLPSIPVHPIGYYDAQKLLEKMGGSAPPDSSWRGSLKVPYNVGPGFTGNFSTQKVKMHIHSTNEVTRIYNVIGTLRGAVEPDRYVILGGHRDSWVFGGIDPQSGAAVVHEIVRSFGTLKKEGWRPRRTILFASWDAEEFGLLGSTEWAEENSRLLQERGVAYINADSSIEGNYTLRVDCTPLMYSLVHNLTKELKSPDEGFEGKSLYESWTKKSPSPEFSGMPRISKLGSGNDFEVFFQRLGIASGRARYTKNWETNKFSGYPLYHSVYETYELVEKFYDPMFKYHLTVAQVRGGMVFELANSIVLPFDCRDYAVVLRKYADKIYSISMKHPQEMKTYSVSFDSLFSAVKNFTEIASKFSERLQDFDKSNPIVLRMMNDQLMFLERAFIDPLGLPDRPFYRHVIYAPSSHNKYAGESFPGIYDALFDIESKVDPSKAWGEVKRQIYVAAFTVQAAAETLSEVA
Outline: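 Compounds added to LNCaP cells in growth medium, 2 h at 37 °C, 5% CO2. After two ice-cold PBS washes, cells lysed in 0.3 M NaOH and bound radioactivity measured by liquid scintillation counting.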

SMILES: Cc1cc(C(=O)NCCN(CCCN(CCNC(=O)c2cc(C)n(CC(=O)NC[C@H]3CC[C@H](C(=O)N[C@@H](Cc4ccc5ccccc5c4)C(=O)NCCCC[C@H](NC(=O)N[C@@H](CCC(=O)O)C(=O)O)C(=O)O)CC3)c(=O)c2O)CCNC(=O)c2cc(C)n(CC(=O)NC[C@H]3CC[C@H](C(=O)N[C@@H](Cc4ccc5ccccc5c4)C(=O)NCCCC[C@H](NC(=O)N[C@@H](CCC(=O)O)C(=O)O)C(=O)O)CC3)c(=O)c2O)CCNC(=O)c2cc(C)n(CC(=O)NC[C@H]3CC[C@H](C(=O)N[C@@H](Cc4ccc5ccccc5c4)C(=O)NCCCC[C@H](NC(=O)N[C@@H](CCC(=O)O)C(=O)O)C(=O)O)CC3)c(=O)c2O)c(O)c(=O)n1CC(=O)NC[C@H]1CC[C@H](C(=O)N[C@@H](Cc2ccc3ccccc3c2)C(=O)NCCCC[C@H](NC(=O)N[C@@H](CCC(=O)O)C(=O)O)C(=O)O)CC1 [1-C tetramer]
- antiproliferative activity on VCap, C4-2, 22Rv1 and LnCap cells (in words) [1]: high antiproliferative activity
- T/Carea [2]: 0.36
- remaining activity at 0.01 µM [3]: 59%
- remaining activity at 0.1 µM [3]: 7%
- competition against 3H-PSMA-617 on PSMA-expressing LNCaP cells (in words) [3]: improved competition

SMILES: Cc1cc(C(=O)NCCN(CCCN(CCNC(=O)c2cc(C)n(CC(=O)NC[C@H]3CC[C@H](C(=O)N[C@@H](Cc4ccc5ccccc5c4)C(=O)NCCCC[C@H](NC(=O)N[C@@H](CCC(=O)O)C(=O)O)C(=O)O)CC3)c(=O)c2O)CCNC(=O)c2cc(C)n(CC(=O)NC[C@H]3CC[C@H](C(=O)N[C@@H](Cc4ccc5ccccc5c4)C(=O)NCCCC[C@H](NC(=O)N[C@@H](CCC(=O)O)C(=O)O)C(=O)O)CC3)c(=O)c2O)CCNC(=O)c2cc(C)n(CC(=O)NC[C@H]3CC[C@H](C(=O)N[C@@H](Cc4ccc5ccccc5c4)C(=O)NCCCC[C@H](NC(=O)N[C@@H](CCC(=O)O)C(=O)O)C(=O)O)CC3)c(=O)c2O)c(O)c(=O)n1CC(=O)O [1-C trimer]
- antiproliferative activity on VCap, C4-2, 22Rv1 and LnCap cells (in words) [1]: high antiproliferative activity
- remaining activity at 0.01 µM [3]: 45%
- remaining activity at 0.1 µM [3]: 9%
- competition against 3H-PSMA-617 on PSMA-expressing LNCaP cells (in words) [3]: improved competition

SMILES: Cc1cc(C(=O)NCCN(CCCN(CCNC(=O)c2cc(C)n(CC(=O)NCc3ccc(C(=O)N[C@@H](Cc4ccc5ccccc5n4)C(=O)NCCCC[C@H](NC(=O)N[C@@H](CCC(=O)O)C(=O)O)C(=O)O)nc3)c(=O)c2O)CCNC(=O)c2cc(C)n(CC(=O)NCc3ccc(C(=O)N[C@@H](Cc4ccc5ccccc5n4)C(=O)NCCCC[C@H](NC(=O)N[C@@H](CCC(=O)O)C(=O)O)C(=O)O)nc3)c(=O)c2O)CCNC(=O)c2cc(C)n(CC(=O)NCc3ccc(C(=O)N[C@@H](Cc4ccc5ccccc5n4)C(=O)NCCCC[C@H](NC(=O)N[C@@H](CCC(=O)O)C(=O)O)C(=O)O)nc3)c(=O)c2O)c(O)c(=O)n1CC(=O)NCc1ccc(C(=O)N[C@@H](Cc2ccc3ccccc3n2)C(=O)NCCCC[C@H](NC(=O)N[C@@H](CCC(=O)O)C(=O)O)C(=O)O)nc1 [34-C tetramer]
- antiproliferative activity on VCap, C4-2, 22Rv1 and LnCap cells (in words) [1]: high antiproliferative activity
- antiproliferative activity on VCap and C4-2 cells (in words) ([1]; 227Th-labelled compounds, in comparison to 227Th-labelled examples 1-C monomer, dimer, trimer and tetramer): improved antiproliferative activity
- remaining activity at 0.01 µM [3]: 73%
- remaining activity at 0.1 µM [3]: 14%

SMILES: CNc1cc(CC(NC(=O)C2CCC(CNC(=O)Cn3c(C)cc(C(=O)NCCN(CCCN(CCNC(=O)c4cc(C)n(CC(=O)O)c(=O)c4O)CCNC(=O)c4cc(C)n(CC(=O)NCC5CCC(C(=O)NC(Cc6cc(NC)c7ccccc7c6)C(=O)NCCCCC(NC(=O)NC(CCC(=O)O)C(=O)O)C(=O)O)CC5)c(=O)c4O)CCNC(=O)c4cc(C)n(CC(=O)O)c(=O)c4O)c(O)c3=O)CC2)C(=O)NCCCCC(NC(=O)NC(CCC(=O)O)C(=O)O)C(=O)O)cc2ccccc12 (centres unmarked) [37-C dimer]
- antiproliferative activity on VCap, C4-2, 22Rv1 and LnCap cells (in words) [1]: high antiproliferative activity
- % remaining 3H-PSMA-617 @ 10 nM (mean) [3]: 64%
- % remaining 3H-PSMA-617 @ 100 nM (mean) [3]: 13%

SMILES: Cc1cc(C(=O)NCCN(CCCN(CCNC(=O)c2cc(C)n(CC(=O)O)c(=O)c2O)CCNC(=O)c2cc(C)n(CC(=O)NC[C@H]3CC[C@H](C(=O)N[C@@H](Cc4ccc5ccccc5c4)C(=O)NCCCC[C@H](NC(=O)N[C@@H](CCC(=O)O)C(=O)O)C(=O)O)CC3)c(=O)c2O)CCNC(=O)c2cc(C)n(CC(=O)O)c(=O)c2O)c(O)c(=O)n1CC(=O)O [Example 1-C Monomer]
- antiproliferative activity on VCap, C4-2, 22Rv1 and LnCap cells (in words) [1]: high antiproliferative activity
- remaining activity at 0.01 µM [3]: 32%
- remaining activity at 0.1 µM [3]: 5%
- competition against 3H-PSMA-617 on PSMA-expressing LNCaP cells (in words) [3]: improved competition

SMILES: Cc1cc(C(=O)NCCN(CCCN(CCNC(=O)c2cc(C)n(CC(=O)O)c(=O)c2O)CCNC(=O)c2cc(C)n(CC(=O)NC[C@H]3CC[C@H](C(=O)N[C@@H](Cc4ccc5ccccc5n4)C(=O)NCCCC[C@H](NC(=O)N[C@@H](CCC(=O)O)C(=O)O)C(=O)O)CC3)c(=O)c2O)CCNC(=O)c2cc(C)n(CC(=O)O)c(=O)c2O)c(O)c(=O)n1CC(=O)O [Example 17-C monomer]
- antiproliferative activity on VCap, C4-2, 22Rv1 and LnCap cells (in words) [1]: high antiproliferative activity
- remaining activity at 0.01 µM [3]: 42%
- remaining activity at 0.1 µM [3]: 8%

SMILES: Cc1cc(C(=O)NCCN(CCCN(CCNC(=O)c2cc(C)n(CC(=O)NC[C@H]3CC[C@H](C(=O)N[C@@H](Cc4cnc5ccccc5c4)C(=O)NCCCC[C@H](NC(=O)N[C@@H](CCC(=O)O)C(=O)O)C(=O)O)CC3)c(=O)c2O)CCNC(=O)c2cc(C)n(CC(=O)NC[C@H]3CC[C@H](C(=O)N[C@@H](Cc4cnc5ccccc5c4)C(=O)NCCCC[C@H](NC(=O)N[C@@H](CCC(=O)O)C(=O)O)C(=O)O)CC3)c(=O)c2O)CCNC(=O)c2cc(C)n(CC(=O)NC[C@H]3CC[C@H](C(=O)N[C@@H](Cc4cnc5ccccc5c4)C(=O)NCCCC[C@H](NC(=O)N[C@@H](CCC(=O)O)C(=O)O)C(=O)O)CC3)c(=O)c2O)c(O)c(=O)n1CC(=O)O [Example 22-C trimer]
- antiproliferative activity on VCap, C4-2, 22Rv1 and LnCap cells (in words) [1]: high antiproliferative activity
- % remaining 3H-PSMA-617 @ 10 nM (mean) [3]: 33%
- % remaining 3H-PSMA-617 @ 100 nM (mean) [3]: 5%
